The results in this text go back to PubChem BioAssay AID220 (DTP/NCI, 2004).

The structures appear in SMILES notation. “And” between values parts separate entries of the source, which are not always exact repeats. Equal entries are not always repeated. Inconclusive results are not listed.

The test system of this assay is CD8F1 mice, subcutaneous mammary adenocarcinoma, T/C%. Kind of assay: NCI In Vivo Anticancer Drug Screen. Data for tumor model Mammary Adenocarcinoma CD8F1 (subcutaneous) in CD8F1. The conditions noted are these: higher = larger tumour. An outline of the steps: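 Transplantable tumors were established in mice, animals were dosed with compound or vehicle, and survival or tumor size was then measured in both groups. The treated result was divided by the control result.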

The mark [1] stands for this setting: endpoint: median tumor weight (est.), dose: 100.0 mg/kg/injection, schedule: Q07DX005 (ip), vehicle: saline.
Setting [2] is: endpoint: median tumor weight (est.), dose: 200.0 mg/kg/injection, schedule: Q07DX005 (ip), vehicle: saline.
The mark [3] stands for this setting: endpoint: median tumor weight (est.), dose: 100.0 mg/kg/injection, schedule: Q07DX005 (ip), vehicle: saline with Tween-80.
The mark [4] stands for this setting: endpoint: mean tumor weight, dose: 25.0 mg/kg/injection, schedule: Q01DX009 (ip), vehicle: saline.
[5] abbreviates: endpoint: median tumor weight change, dose: 250.0 mg/kg/injection, schedule: Q01DX001 (ip), vehicle: saline.
[6] abbreviates: endpoint: median tumor weight change, dose: 500.0 mg/kg/injection, schedule: Q01DX001 (ip), vehicle: saline.
Where [7] appears, read: endpoint: median tumor weight change, dose: 1000.0 mg/kg/injection, schedule: Q01DX001 (ip), vehicle: saline.
[8] abbreviates: endpoint: median tumor weight (est.), dose: 25.0 mg/kg/injection, schedule: Q07DX005 (ip), vehicle: saline with Tween-80.
Where [9] appears, read: endpoint: median tumor weight (est.), dose: 50.0 mg/kg/injection, schedule: Q07DX005 (ip), vehicle: saline with Tween-80.
Setting [10] is: endpoint: median tumor weight (est.), dose: 200.0 mg/kg/injection, schedule: Q07DX005 (ip), vehicle: saline with Tween-80.
Setting [11] is: endpoint: median tumor weight (est.), dose: 400.0 mg/kg/injection, schedule: Q07DX005 (ip), vehicle: saline with Tween-80.
[12] abbreviates: endpoint: median tumor weight (est.), dose: 25.0 mg/kg/injection, schedule: Q07DX005 (ip), vehicle: Klucel (hydroxypropylcellulose) (HPC).
[13] abbreviates: endpoint: median tumor weight (est.), dose: 100.0 mg/kg/injection, schedule: Q07DX005 (ip), vehicle: Klucel (hydroxypropylcellulose) (HPC).

`OC(CCl)CN1CC[N+]2(CC1)CC[N+]1(CCN(CC(O)CCl)CC1)CC2` (stereo not given): the T/C (endpoint: median tumor weight (est.), dose: 12.5 mg/kg/injection, schedule: Q07DX005 (ip), vehicle: saline) was 57 % of control; the T/C (endpoint: median tumor weight (est.), dose: 25.0 mg/kg/injection, schedule: Q07DX005 (ip), vehicle: saline) is 67 % of control; the T/C (endpoint: median tumor weight (est.), dose: 50.0 mg/kg/injection, schedule: Q07DX005 (ip), vehicle: saline) is 80 % of control; the T/C under setting [1] is 43 % of control; the T/C under setting [2] is 36 % of control; the T/C (endpoint: median tumor weight (est.), dose: 400.0 mg/kg/injection, schedule: Q07DX005 (ip), vehicle: saline) was 11 % of control. In addition, the T/C runs as follows: (endpoint: median tumor weight change, dose: 50.0 mg/kg/injection, schedule: Q01DX001 (ip), vehicle: saline) 101 % of control; (endpoint: median tumor weight change, dose: 100.0 mg/kg/injection, schedule: Q01DX001 (ip), vehicle: saline) 111 % of control; (endpoint: median tumor weight change, dose: 200.0 mg/kg/injection, schedule: Q01DX001 (ip), vehicle: saline) 96 % of control and 119 % of control; (endpoint: median tumor weight change, dose: 800.0 mg/kg/injection, schedule: Q01DX001 (ip), vehicle: saline) 49 % of control and 56 % of control.
In the case of `CCc1nc(N)nc(N)c1-c1ccc(Cl)c(N=[N+]=[N-])c1`, the T/C (endpoint: median tumor weight change, dose: 62.5 mg/kg/injection, schedule: Q01DX001 (ip), vehicle: saline with Tween-80) is 57 % of control; the T/C (endpoint: median tumor weight change, dose: 125.0 mg/kg/injection, schedule: Q01DX001 (ip), vehicle: saline with Tween-80) was 78 % of control; the T/C (endpoint: median tumor weight change, dose: 2000.0 mg/kg/injection, schedule: Q01DX001 (ip), vehicle: saline with Tween-80) was 24 % of control.
With `COc1cc2oc(=O)ccc2cc1[C@@H]1OC(=O)C2(C)O[C@@H]12` (stereo not given in full), the T/C is, setting by setting: (endpoint: median tumor weight (est.), dose: 0.94 mg/kg/injection, schedule: Q07DX005 (ip), vehicle: water) 174 % of control; (endpoint: median tumor weight (est.), dose: 3.75 mg/kg/injection, schedule: Q07DX005 (ip), vehicle: water) 101 % of control; (endpoint: median tumor weight (est.), dose: 7.5 mg/kg/injection, schedule: Q07DX005 (ip), vehicle: water) 105 % of control; (endpoint: median tumor weight (est.), dose: 15.0 mg/kg/injection, schedule: Q07DX005 (ip), vehicle: water) 124 % of control.
With `COC(=O)c1cc2cc(C)c(C)c(C)c2c2ccc(C)cc12`, the T/C under setting [3] is 101 % of control.
In the case of `Nc1n[nH]c(N)n1`, the T/C was 153 % of control under setting [4]; 207 % of control (endpoint: mean tumor weight, dose: 100.0 mg/kg/injection, schedule: Q01DX009 (ip), vehicle: saline); 50 % of control and 67 % of control under setting [1]; 58 % of control and 68 % of control under setting [2]; 27 % of control and 51 % of control (endpoint: median tumor weight (est.), dose: 1600.0 mg/kg/injection, schedule: Q07DX005 (ip), vehicle: saline); 75 % of control under setting [5]. Besides, the T/C is, setting by setting: under setting [6], 121 % of control; under setting [7], 120 % of control; (endpoint: median tumor weight change, dose: 2000.0 mg/kg/injection, schedule: Q01DX001 (ip), vehicle: saline) 174 % of control.
For the compound `Clc1ccc(CN2COc3c(ccc4cccnc34)C2)cc1Cl`, the T/C by setting is: under setting [8], 113 % of control; under setting [9], 65 % of control; under setting [10], 66 % of control; under setting [11], 96 % of control.
Regarding `c1cc[c]([Sn][c]2ccccc2)cc1`, the T/C (endpoint: median tumor weight (est.), dose: 1.25 mg/kg/injection, schedule: Q07DX005 (ip), vehicle: saline) was 101 % of control; the T/C (endpoint: median tumor weight (est.), dose: 2.5 mg/kg/injection, schedule: Q07DX005 (ip), vehicle: saline) is 91 % of control; the T/C (endpoint: median tumor weight (est.), dose: 5.0 mg/kg/injection, schedule: Q07DX005 (ip), vehicle: saline) is 86 % of control; the T/C (endpoint: median tumor weight (est.), dose: 10.0 mg/kg/injection, schedule: Q07DX005 (ip), vehicle: saline) is 68 % of control; the T/C (endpoint: median tumor weight (est.), dose: 20.0 mg/kg/injection, schedule: Q07DX005 (ip), vehicle: saline) was 50 % of control.
Turning to `CCNC(=O)[B-][N+](C)(C)C`, the T/C is 101 % of control (endpoint: median tumor weight change, dose: 50.0 mg/kg/injection, schedule: Q01DX001 (ip), vehicle: Klucel (hydroxypropylcellulose) (HPC)); 108 % of control (endpoint: median tumor weight change, dose: 100.0 mg/kg/injection, schedule: Q01DX001 (ip), vehicle: Klucel (hydroxypropylcellulose) (HPC)); 97 % of control (endpoint: median tumor weight change, dose: 200.0 mg/kg/injection, schedule: Q01DX001 (ip), vehicle: Klucel (hydroxypropylcellulose) (HPC)); 72 % of control (endpoint: median tumor weight change, dose: 400.0 mg/kg/injection, schedule: Q01DX001 (ip), vehicle: Klucel (hydroxypropylcellulose) (HPC)).
As to `COC1=C(OC)C(=O)C(SC/C=C(\C)CCCC(C)CCCC(C)CCCC(C)C)=CC1=O` (stereo not given), the T/C runs as follows: (endpoint: median tumor weight (est.), dose: 12.5 mg/kg/injection, schedule: Q07DX005 (ip), vehicle: saline with Tween-80) 164 % of control; under setting [8], 110 % of control; under setting [9], 32 % of control; under setting [3], 68 % of control; under setting [10], 85 % of control; under setting [11], 52 % of control.
For `O=C([CH-]C(=O)C(F)(F)F)c1ccccc1.O=C([CH-]C(=O)C(F)(F)F)c1ccccc1.O=C([CH-]C(=O)C(F)(F)F)c1ccccc1.O=C([CH-]C(=O)C(F)(F)F)c1ccccc1.[Eu+3].c1ccncc1`, the T/C was 109 % of control (endpoint: median tumor weight (est.), dose: 12.5 mg/kg/injection, schedule: Q07DX005 (ip), vehicle: Klucel (hydroxypropylcellulose) (HPC)); 109 % of control under setting [12]; 103 % of control (endpoint: median tumor weight (est.), dose: 50.0 mg/kg/injection, schedule: Q07DX005 (ip), vehicle: Klucel (hydroxypropylcellulose) (HPC)); 95 % of control under setting [13]; 110 % of control (endpoint: median tumor weight (est.), dose: 400.0 mg/kg/injection, schedule: Q07DX005 (ip), vehicle: Klucel (hydroxypropylcellulose) (HPC)).
For the compound `NC(N)=NOCC[C@@H](N)C(=O)O`, the T/C was 83 % of control under setting [5], 72 % of control under setting [6] and 75 % of control under setting [7].
`COc1ccc(C(=O)/C(Br)=C/C(=O)O)cc1`: the T/C (endpoint: mean tumor weight, dose: 8.0 mg/kg/injection, schedule: Q07DX004 (ip), vehicle: saline) is 69 % of control; the T/C (endpoint: mean tumor weight, dose: 12.5 mg/kg/injection, schedule: Q01DX009 (ip), vehicle: saline) is 206 % of control and 122 % of control; the T/C (endpoint: mean tumor weight, dose: 16.0 mg/kg/injection, schedule: Q07DX004 (ip), vehicle: saline) is 171 % of control; the T/C under setting [4] is 241 % of control and 113 % of control; the T/C (endpoint: mean tumor weight, dose: 25.0 mg/kg/injection, schedule: Q07DX006 (ip), vehicle: saline) is 190 % of control; the T/C (endpoint: mean tumor weight, dose: 32.0 mg/kg/injection, schedule: Q07DX004 (ip), vehicle: saline) was 163 % of control. In addition, the T/C by setting is: (endpoint: mean tumor weight, dose: 50.0 mg/kg/injection, schedule: Q01DX009 (ip), vehicle: saline) 156 % of control and 209 % of control; (endpoint: mean tumor weight, dose: 50.0 mg/kg/injection, schedule: Q07DX006 (ip), vehicle: saline) 86 % of control; (endpoint: mean tumor weight, dose: 64.0 mg/kg/injection, schedule: Q07DX004 (ip), vehicle: saline) 89 % of control; (endpoint: median tumor weight (est.), dose: 4.0 mg/kg/injection, schedule: Q01DX005 (ip), vehicle: saline) 159 % of control; (endpoint: median tumor weight (est.), dose: 8.0 mg/kg/injection, schedule: Q04DX005 (ip), vehicle: saline) 114 % of control; (endpoint: median tumor weight (est.), dose: 8.0 mg/kg/injection, schedule: Q07DX005 (ip), vehicle: saline) 120 % of control. Besides, the T/C was 100 % of control (endpoint: median tumor weight (est.), dose: 16.0 mg/kg/injection, schedule: Q01DX005 (ip), vehicle: saline); 120 % of control (endpoint: median tumor weight (est.), dose: 16.0 mg/kg/injection, schedule: Q07DX005 (ip), vehicle: saline); 116 % of control (endpoint: median tumor weight (est.), dose: 32.0 mg/kg/injection, schedule: Q01DX005 (ip), vehicle: saline); 50 % of control (endpoint: median tumor weight (est.), dose: 32.0 mg/kg/injection, schedule: Q07DX005 (ip), vehicle: saline); 56 % of control (endpoint: median tumor weight (est.), dose: 64.0 mg/kg/injection, schedule: Q01DX005 (ip), vehicle: saline); 219 % of control (endpoint: median tumor weight (est.), dose: 64.0 mg/kg/injection, schedule: Q04DX005 (ip), vehicle: saline). For the same compound, the T/C (endpoint: median tumor weight (est.), dose: 64.0 mg/kg/injection, schedule: Q07DX005 (ip), vehicle: saline) is 105 % of control.
For `CN(C)N=Nc1ccccc1`, the T/C is 87 % of control under setting [12] and 78 % of control under setting [13].
